Laboratory results: patent publication US6447782B1, “Lipid extract of the Skeletonema algae” (Parfums Christian Dior, priority 1998, dated 2002)

Test system: 3′,5′-cAMP phosphodiesterase (PDE)
Assay: Test for inhibitory activity on PDE (hydrolysis of cAMP to AMP, AMP measured by HPLC)
Format: biochemical
Conditions: reaction time 5 minutes, lipid extract 0.1% in DMSO, theophylline 0.2% in DMSO
Experimental: The principle of the test is based on the hydrolysis of cyclic 3′5′-adenosine monophosphate(cAMP) to adenosine monophosphate (AMP). The formation of AMP is measured by HPLC (high performance liquid chromatography) analysis.
The solutions of the reagents are prepared in 0.05 M Tris-HCl buffer at pH 7.5.
The lipid extracts to be tested are at a concentration of 0.1% in DMSO.
The same experiment is carried out with the reference active product theophylline (H. Kather, A. Scheurer, Effects of different phosphodiesterase inhibitors on the antilipolytic action of insulin in human adipocytes: Horm. Metabol. Res. 19 (1987) 379-381). Likewise, B. B. Fredholm, E. Lindger, Acta pharmacol. et toxicol., 54 (1984), pp. 64-71, “The effect of alkylxanthines and other phosphodiesterase inhibitors on adenosine receptor mediated decrease in lipolysis and cyclic AMP accumulation in rat fat cells” . . . These tests are reference tests for those skilled in the art.
The theophylline tested (SIGMA/Ref. T1633) is at a concentration of 0.2% in DMSO.
The composition of the reaction media is described below. […]
The amount of AMP formed is measured after a reaction time of 5 minutes by calculating the integration area of the AMP peak on the chromatogram produced by the HPLC apparatus (KONTRON S. A.). […]
The amount of AMP due to the action of PDE is measured after a reaction time of 5 minutes. […]

Cn1c(=O)c2[nH]cnc2n(C)c1=O [Theophylline, theophylline]
A (%) percentage inhibition of PDE: 35%
Integration area of AMP (DMSO control 40.80): 26.52
